Reference: patent US10212936B2, “Molecules having pesticidal utility, and intermediates, compositions, and processes, related thereto” (priority 2014, dated 2019)

Assays:
Assay type in all cases: in vivo
[1] = system: Beet Armyworm (Spodoptera exigua, LAPHEG); test: Bioassay on Beet Armyworm (BAW), 128-well diet tray assay; conditions: 168 h, 50 μg/cm^2 on artificial diet, second instar larvae, five to seven days, 25° C., read-out: BAW % Control (or Mortality) rating
Description: (§1) Example A: Bioassays on Beet Armyworm (Spodoptera exigua, LAPHEG) (“BAW”), Corn Earworm (Helicoverpa zea, HELIZE) (“CEW”), and Cabbage Looper (Trichoplusia ni, TRIPNI) (“CL”)
(§2) Certain molecules disclosed in this document were tested against BAW, CEW, and CL using procedures described in the following examples. In the reporting of the results, the “BAW, CEW, & CL Rating Table” was used (See Table Section).
Bioassays on BAW were conducted using a 128-well diet tray assay. one to five second instar BAW larvae were placed in each well (3 mL) of the diet tray that had been previously filled with 1 mL of artificial diet to which 50 μg/cm^2 of the test molecule (dissolved in 50 μL of 90:10 acetone-water mixture) had been applied (to each of eight wells) and then allowed to dry. Trays were covered with a clear self-adhesive cover and held at 25° C., 14:10 light-dark for five to seven days. Percent mortality was recorded for the larvae in each well; activity in the eight wells was then averaged. The results are indicated in the table entitled “Table ABC: Biological Results” (See Table Section).

[2] = system: Yellow Fever Mosquito (Aedes aegypti, AEDSAE); test: Bioassay on Yellow Fever Mosquito (YFM) larvae, 96-well plate; conditions: about 1 day-old larvae, 4000 ppm DMSO master plate diluted, graded after 3 days
Description: Example C: Bioassays on Yellow Fever Mosquito (Aedes aegypti, AEDSAE) (“YFM”)
Certain molecules disclosed in this document were tested against YFM using procedures described in the following paragraph. In the reporting of the results, the “YFM Rating Table” was used (See Table Section).
Master plates containing 400 μg of a molecule dissolved in 100 μL of dimethyl sulfoxide (DMSO) (equivalent to a 4000 ppm solution) are used. A master plate of assembled molecules contains 15 μL per well. To this plate, 135 μL of a 90:10 water:acetone mixture is added to each well. A robot (Biomek® NXP Laboratory Automation Workstation) is programmed to dispense 15 μL aspirations from the master plate into an empty 96-well shallow plate (“daughter” plate). There are 6 reps (“daughter” plates) created per master. The created daughter plates are then immediately infested with YFM larvae.
The day before plates are to be treated, mosquito eggs are placed in Millipore water containing liver powder to begin hatching (4 g. into 400 mL). After the daughter plates are created using the robot, they are infested with 220 μL of the liver powder/larval mosquito mixture (about 1 day-old larvae). After plates are infested with mosquito larvae, a non-evaporative lid is used to cover the plate to reduce drying. Plates are held at room temperature for 3 days prior to grading. After 3 days, each well is observed and scored based on mortality. The results are indicated in the table entitled “Table ABC: Biological Results” (See Table Section).

[3] = system: Cabbage Looper (Trichoplusia ni, TRIPNI); test: Bioassay on Cabbage Looper (CL), 128-well diet tray assay; conditions: 168 h, 50 μg/cm^2 on artificial diet, second instar larvae, five to seven days, 25° C., read-out: CL % Control (or Mortality) rating
Description: as §1, §2
Bioassays on CL were conducted using a 128-well diet tray assay. one to five second instar CL larvae were placed in each well (3 mL) of the diet tray that had been previously filled with 1 mL of artificial diet to which 50 μg/cm^2 of the test molecule (dissolved in 50 μL of 90:10 acetone-water mixture) had been applied (to each of eight wells) and then allowed to dry. Trays were covered with a clear self-adhesive cover and held at 25° C., 14:10 light-dark for five to seven days. Percent mortality was recorded for the larvae in each well; activity in the eight wells was then averaged. The results are indicated in the table entitled “Table ABC: Biological Results” (See Table Section).

Row | SMILES | mortality at 50 µg/cm2 [1] | YFM % Control (or Mortality) rating [2] | mortality at 50 µg/cm2 [3]
1 | CCOC(=O)c1c(C)csc1NC(=O)Nc1ccc(-c2ncn(-c3ccc(OC(F)(F)F)cc3)n2)cc1 [F1, ethyl 4-methyl-2-(3-(4-(1-(4-(trifluoromethoxy)phenyl)-1H-1,2,4-triazol-3-yl)phenyl)ureido)thiophene-3-carboxylate] | 0% | D (No activity noticed in this bioassay) | 0%
2 | CCOC(=O)c1cnn(-c2ccc(Cl)cc2C)c1NC(=O)Nc1ccc(-c2ncn(-c3ccc(OC(F)(F)F)cc3)n2)cc1 [F2, Ethyl 1-(4-chloro-2-methylphenyl)-5-(3-(4-(1-(4-(trifluoromethoxy)phenyl)-1H-1,2,4-triazol-3-yl)phenyl)ureido)-1H-pyrazole-4-carboxylate] | 0% | D (No activity noticed in this bioassay) | 0%
3 | CC(C)CC(C)c1sccc1NC(=O)Nc1ccc(-c2ncn(-c3ccc(OC(F)(F)F)cc3)n2)cc1 (stereo not drawn) [F8, 1-(2-(4-Methylpentan-2-yl)thiophen-3-yl)-3-(4-(1-(4-(trifluoromethoxy)phenyl)-1H-1,2,4-triazol-3-yl)phenyl)urea] | 0% | D (No activity noticed in this bioassay) | 50 to 100%
4 | O=C(Nc1ccc(-c2ncn(-c3ccc(OC(F)(F)F)cc3)n2)cc1)Nc1ccnn1-c1ccccc1 [F10, 1-(1-Phenyl-1H-pyrazol-5-yl)-3-(4-(1-(4-(trifluoromethoxy)phenyl)-1H-1,2,4-triazol-3-yl)phenyl)urea] | 50 to 100% | D (No activity noticed in this bioassay) | 50 to 100%
5 | O=C(Nc1ccc(-c2ncn(-c3ccc(OC(F)(F)F)cc3)n2)cc1)Nc1nccn1-c1cc(Cl)cc(Cl)c1 [F28, 1-(1-(3,5-Dichlorophenyl)-1H-imidazol-2-yl)-3-(4-(1-(4-(trifluoromethoxy)phenyl)-1H-1,2,4-triazol-3-yl)phenyl)urea] | 50 to 100% |  | 0%
6 | O=C(Nc1ccc(-c2ncn(-c3ccc(OC(F)(F)F)cc3)n2)cc1)Nc1nccn1-c1cccnc1 [F32, 1-(1-(Pyridin-3-yl)-1H-imidazol-2-yl)-3-(4-(1-(4-(trifluoromethoxy)phenyl)-1H-1,2,4-triazol-3-yl)phenyl)urea] | 50 to 100% |  | 0 to 50%
7 | COc1ccc(-c2ncsc2NC(=O)Nc2ccc(-c3ncn(-c4ccc(OC(F)(F)F)cc4)n3)cc2)c(C)c1 [F46, 1-(4-(4-Methoxy-2-methylphenyl)thiazol-5-yl)-3-(4-(1-(4-(trifluoromethoxy)phenyl)-1H-1,2,4-triazol-3-yl)phenyl)urea] | 50 to 100% | A (80-100) | 50 to 100%
8 | Cc1ccc(C)c(-c2ncsc2NC(=O)Nc2ccc(-c3ncn(-c4ccc(OC(F)(F)F)cc4)n3)cc2)c1 [F47, 1-(4-(2,5-Dimethylphenyl)thiazol-5-yl)-3-(4-(1-(4-(trifluoromethoxy)phenyl)-1H-1,2,4-triazol-3-yl)phenyl)urea] | 50 to 100% | A (80-100) | 50 to 100%
9 | O=C(Nc1ccc(-c2ncn(-c3ccc(OC(F)(F)F)cc3)n2)cc1)Nc1scnc1-c1c(Cl)cccc1Cl [F48, 1-(4-(2,6-Dichlorophenyl)thiazol-5-yl)-3-(4-(1-(4-(trifluoromethoxy)phenyl)-1H-1,2,4-triazol-3-yl)phenyl)urea] |  | A (80-100) | 
10 | CCc1ccccc1-c1ncsc1NC(=O)Nc1ccc(-c2ncn(-c3ccc(OC(F)(F)F)cc3)n2)cc1 [F49, 1-(4-(2-ethylphenyl)thiazol-5-yl)-3-(4-(1-(4-(trifluoromethoxy)phenyl)-1H-1,2,4-triazol-3-yl)phenyl)urea] | 50 to 100% |  | 50 to 100%
11 | O=C(NCCc1ccc(-c2ncn(-c3ccc(OC(F)(F)F)cc3)n2)cc1)Nc1nccs1 [F50, 1-(thiazol-2-yl)-3-(4-(1-(4-(trifluoromethoxy)phenyl)-1H-1,2,4-triazol-3-yl)phenethyl)urea] | 0% | D (No activity noticed in this bioassay) | 0%
12 | O=C(NCCc1ccc(-c2ncn(-c3ccc(OC(F)(F)F)cc3)n2)cc1)Nc1ccnn1-c1ccccc1 [F51, 1-(1-phenyl-1H-pyrazol-5-yl)-3-(4-(1-(4-(trifluoromethoxy)phenyl)-1H-1,2,4-triazol-3-yl)phenethyl)urea] | 0% |  | 0%
13 | Cc1cc(C)c(C2=C(NC(=O)NCCc3ccc(-c4ncn(-c5ccc(OC(F)(F)F)cc5)n4)cc3)OCC2=O)c(C)c1 [F53, 1-(3-mesityl-4-oxo-4,5-dihydrofuran-2-yl)-3-(4-(1-(4-(trifluoromethoxy)phenyl)-1H-1,2,4-triazol-3-yl)phenethyl)urea] | 0 to 50% | A (80-100) | 50 to 100%
14 | O=C(NCCc1ccc(-c2ncn(-c3ccc(OC(F)(F)F)cc3)n2)cc1)NC1=C(c2c(Cl)cccc2Cl)C(=O)CO1 [F54, 1-(3-(2,6-Dichlorophenyl)-4-oxo-4,5-dihydrofuran-2-yl)-3-(4-(1-(4-(trifluoromethoxy)phenyl)-1H-1,2,4-triazol-3-yl)phenethyl)urea] | 0% | A (80-100) | 0%
15 | Cc1cccc(C)c1C1=C(NC(=O)NCCc2ccc(-c3ncn(-c4ccc(OC(F)(F)F)cc4)n3)cc2)OCC1=O [F55, 1-(3-(2,6-Dimethylphenyl)-4-oxo-4,5-dihydrofuran-2-yl)-3-(4-(1-(4-(trifluoromethoxy)phenyl)-1H-1,2,4-triazol-3-yl)phenethyl)urea] | 50 to 100% | A (80-100) | 0%
16 | Cc1ccc(C)c(C2=C(NC(=O)NCCc3ccc(-c4ncn(-c5ccc(OC(F)(F)F)cc5)n4)cc3)OCC2=O)c1 [F56, 1-(3-(2,5-Dimethylphenyl)-4-oxo-4,5-dihydrofuran-2-yl)-3-(4-(1-(4-(trifluoromethoxy)phenyl)-1H-1,2,4-triazol-3-yl)phenethyl)urea] | 50 to 100% | A (80-100) | 50 to 100%
17 | Cc1ccc(C)c(-c2c(NC(=O)NCCc3ccc(-c4ncn(-c5ccc(OC(F)(F)F)cc5)n4)cc3)on(C)c2=O)c1 [F57, 1-(4-(2,5-Dimethylphenyl)-2-methyl-3-oxo-2,3-dihydroisoxazol-5-yl)-3-(4-(1-(4-(trifluoromethoxy)phenyl)-1H-1,2,4-triazol-3-yl)phenethyl)urea] | 50 to 100% | A (80-100) | 50 to 100%
18 | CC(C)c1ccccc1-c1c(NC(=O)NCCc2ccc(-c3ncn(-c4ccc(OC(F)(F)F)cc4)n3)cc2)on(C)c1=O [F58, 1-(4-(2-Isopropylphenyl)-2-methyl-3-oxo-2,3-dihydroisoxazol-5-yl)-3-(4-(1-(4-(trifluoromethoxy)phenyl)-1H-1,2,4-triazol-3-yl)phenethyl)urea] | 50 to 100% | A (80-100) | 50 to 100%
19 | Cc1cc(C)c(-c2c(NC(=O)NCCc3ccc(-c4ncn(-c5ccc(OC(F)(F)F)cc5)n4)cc3)on(C)c2=O)c(C)c1 [F59, 1-(4-Mesityl-2-methyl-3-oxo-2,3-dihydroisoxazol-5-yl)-3-(4-(1-(4-(trifluoromethoxy)phenyl)-1H-1,2,4-triazol-3-yl)phenethyl)urea] | 50 to 100% | A (80-100) | 50 to 100%
